Reference: the supplement of paper PMC4862054

Assays:
Experiment in all cases: normalised viability (% of control), CellTiter-Blue; higher = more viable cells (about 100 = DMSO control)
Conditions in all cases: incubation time: 72 h
[1] = test system: BT-474
How it was run: (§1)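 Normalised viability is given for a single listed concentration of the series. In 384-well plates, breast cancer cell lines were incubated 72 h with compound, then read with CellTiter-Blue (2 h, 37 °C) at 560/590 nm. Per-plate scaling set vehicle to 100 and a positive kill control to 0, with Z'-factor quality control.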

[2] = test system: CAL-148
How it was run: as §1

[3] = test system: CAL-85-1
How it was run: as §1

[4] = test system: DU-4475
How it was run: as §1

[5] = test system: HCC1143
How it was run: as §1

[6] = test system: HCC1599
How it was run: as §1

[7] = test system: HCC1937
How it was run: as §1

[8] = test system: HDQ-P1
How it was run: as §1

[9] = test system: Hs578T
How it was run: as §1

[10] = test system: MDA-MB-231
How it was run: as §1

[11] = test system: MDA-MB-436
How it was run: as §1

[12] = test system: MFM-223
How it was run: as §1

SMILES | normalised viability ([1]; 10 nM) [%] | normalised viability ([1]; 1000 nM) [%] | normalised viability ([1]; 10000 nM) [%] | normalised viability ([2]; 3 nM) [%] | normalised viability ([2]; 30 nM) [%] | normalised viability ([2]; 100 nM) [%] | normalised viability ([3]; 3 nM) [%] | normalised viability ([3]; 30 nM) [%] | normalised viability ([3]; 100 nM) [%] | normalised viability ([4]; 3 nM) [%] | normalised viability ([4]; 30 nM) [%] | normalised viability ([4]; 100 nM) [%] | normalised viability ([5]; 10 nM) [%] | normalised viability ([5]; 1000 nM) [%] | normalised viability ([5]; 10000 nM) [%] | normalised viability ([6]; 10 nM) [%] | normalised viability ([6]; 1000 nM) [%] | normalised viability ([6]; 10000 nM) [%] | normalised viability ([7]; 10 nM) [%] | normalised viability ([7]; 1000 nM) [%] | normalised viability ([7]; 10000 nM) [%] | normalised viability ([8]; 3 nM) [%] | normalised viability ([8]; 30 nM) [%] | normalised viability ([8]; 100 nM) [%] | normalised viability ([9]; 10 nM) [%] | normalised viability ([9]; 1000 nM) [%] | normalised viability ([9]; 10000 nM) [%] | normalised viability ([10]; 10 nM) [%] | normalised viability ([10]; 1000 nM) [%] | normalised viability ([10]; 10000 nM) [%] | normalised viability ([11]; 10 nM) [%] | normalised viability ([11]; 1000 nM) [%] | normalised viability ([11]; 10000 nM) [%] | normalised viability ([12]; 10 nM) [%] | normalised viability ([12]; 1000 nM) [%] | normalised viability ([12]; 10000 nM) [%]
COc1cc(F)c(F)c(Nc2ccc(I)cc2F)c1NS(=O)(=O)C1(C[C@H](O)CO)CC1 [RDEA119] | 108 | 103 | 110 | 91.9 | 80.7 | 80 | 95.2 | 98.8 | 97.3 | 91.4 | 61.2 | 28.2 | 117 | 62.8 | 61.7 | 92.5 | 78.6 | 82 | 102 | 72.4 | 62.8 | 81.5 | 88 | 110 | 103 | 69.7 | 54.5 | 73.7 | 28.7 | 29.3 | 93.3 | 103 | 84.6 | 94.8 | 75.7 | 54.7
CC(C)(C)c1cnc(CSc2cnc(NC(=O)C3CCNCC3)s2)o1 [SNS-032] | 119 | 26.5 | 35 | 91.9 | 99.5 | 77.1 | 88.8 | 78.5 | 70.1 | 101 | 86.9 | 87.5 | 79.7 | 17.5 | 16.6 | 113 | 17.4 | 22.4 | 138 | 23.1 | 17.1 | 113 | 93.5 | 63 | 104 | 5.65 | 4 | 106 | 8.24 | 7.03 | 105 | 16.2 | 15.1 | 87.9 | 14.2 | 20
Cn1cnc2c(F)c(Nc3ccc(Br)cc3Cl)c(C(=O)NOCCO)cc21 [Selumetinib] | 104 | 105 | 104 | 91 | 87.9 | 88.9 | 88.1 | 93.6 | 100 | 95.1 | 72.5 | 43.7 | 79.7 | 58.2 | 49.7 | 112 | 78.3 | 76.3 | 65.3 | 83.8 | 68.6 | 92.4 | 107 | 92.6 | 90.8 | 89.8 | 76.2 | 90.3 | 49.5 | 30 | 113 | 59.8 | 101 | 86.2 | 89.7 | 73.1
Nc1nc2[nH]cnc2c(=S)[nH]1 [Thioguanine] | 112 | 113 | 102 | 105 | 116 | 102 | 111 | 97.4 | 104 | 120 | 112 | 116 | 92.6 | 103 | 82.9 | 111 | 77 | 103 | 76.3 | 86.1 | 40.4 | 117 | 127 | 101 | 137 | 96.4 | 32.9 | 92.7 | 58.4 | 56 | 104 | 74.5 | 65.6 | 89.4 | 88.6 | 82.2
